Source: ChEMBL document CHEMBL6134893, “The Exploration of Indole-Based LSD1-Targeted Inhibitors for Enhanced Immune Response in Gastric Cancer via the PD-L1/PD-1 Axis” (J Med Chem, 2025)
Calls of active or inactive are those of the source. The calls are words filed in the database; no cut-off is given here.

Key:
[1] = system: MKN-45; assay: Effect on H3K4me1 demethylation in human MKN-45 cells harboring LSD1-KO at 1 to 4 uM incubated for 5 days by Western blot analysis; type: functional, cell-based; details: dose 1-4 µM, time 5.0 day
[2] = system: MFC; assay: In vivo induction of T-cell infiltration in mouse MFC cells implanted in 615 mouse assessed as increase in CD3+ CD8+ T cells at 25 mg/kg, IG treated daily for 14 days by flow cytometry (reference value: 2.79 %); type: functional; details: time 14 day
[3] = system: MKN-45; assay: Induction of T-cell killing response in human MKN-45 cells assessed as increase in IL-2 secretion at 1 to 4 uM pretreated for 5 days followed by co-culturing with human PBMC-derived T cells for 4 days by ELISA; type: functional, cell-based; details: dose 1-4 µM, time 5.0 day
[4] = target: T1, Lysine-specific histone demethylase 1A (Homo sapiens, UniProt O60341); assay: Inhibition of LSD1 in human MKN-45 cells assessed as accumulation of membrane PD-L1 at 4 uM incubated for 5 days (reference value: 58.4 %); type: cell-based; set-up: scale not given: the % may be the effect or the level left; details: time 5.0 day
[5] = target: T1, Lysine-specific histone demethylase 1A; assay: Inhibition of recombinant LSD1 (unknown origin) extracted from Escherichia coli BL21 (DE3) using H3K4me2 peptide as substrate in presence of […] by Amplex Red assay
[6] = system: MKN-45; assay: Effect on H3K4me3 demethylation in human MKN-45 cells at 1 to 4 uM incubated for 5 days by Western blot analysis; type: functional, cell-based; details: dose 1-4 µM, time 5.0 day
[7] = system: MKN-45; assay: Induction of T-cell killing response in human MKN-45 cells assessed as decrease in cell viability pretreated for 5 days followed by co-culturing with human PBMC-derived T cells for 4 days by CCK8 assay; type: functional, cell-based; details: dose 1-4 µM, time 5.0 day
[8] = target: T1, Lysine-specific histone demethylase 1A; assay: Inhibition of LSD1 in human MKN-45 cells assessed as accumulation of membrane PD-L1 at 2 uM incubated for 5 days; type: cell-based; set-up: scale not given: the % may be the effect or the level left; details: time 5.0 day
[9] = Toxicity in 615 mouse implanted with mouse MFC cells assessed as histological change in lung at 10 to 50 mg/kg, IG treated daily for 14 days by H and E staining based analysis; type: organism-based; details: in vivo, po, 336 h, dose 10-50 mg/kg, time 14 day
[10] = target: Lysine-specific histone demethylase 1A (Mus musculus) (UniProt Q6ZQ88); assay: Inhibition of LSD1 in mouse MFC cells assessed as reduction in PD-L1 level incubated for 5 days by Western blot analysis; type: cell-based; details: time 5.0 day
[11] = system: MFC; assay: Induction of T-cell killing response in mouse MFC cells assessed as increase in IFN-gamma secretion at 1 to 4 uM pretreated for 5 days followed by co-culturing with human PBMC-derived T cells for 4 days by ELISA; type: functional, cell-based; details: dose 1-4 µM, time 5.0 day
[12] = system: Mus musculus; assay: In vivo induction of T-cell response in mouse MFC cells implanted in 615 mouse assessed as increase in IFN-gamma mRNA level at 10 to 50 mg/kg, IG treated daily for 14 days by PCR analysis; type: functional, organism-based; details: dose 10-50 mg/kg, time 14.0 day
[13] = Toxicity in 615 mouse implanted with mouse MFC cells assessed as histological change in heart at 10 to 50 mg/kg, IG treated daily for 14 days by H and E staining based analysis; type: organism-based; details: in vivo, po, 336 h, dose 10-50 mg/kg, time 14 day
[14] = Toxicity in 615 mouse implanted with mouse MFC cells assessed as histological change in spleen at 10 to 50 mg/kg, IG treated daily for 14 days by H and E staining based analysis; type: organism-based; details: in vivo, po, 336 h, dose 10-50 mg/kg, time 14 day
[15] = system: MKN-45; assay: Induction of T-cell killing response in human MKN-45 cells assessed as increase in IFN-gamma secretion at 1 to 4 uM pretreated for 5 days followed by co-culturing with human PBMC-derived T cells for 4 days by ELISA; type: functional, cell-based; details: dose 1-4 µM, time 5.0 day
[16] = system: Mus musculus; assay: In vivo induction of T-cell response in mouse MFC cells implanted in 615 mouse assessed as increase in IL-2 mRNA level at 10 to 50 mg/kg, IG treated daily for 14 days by PCR analysis; type: functional, organism-based; details: dose 10-50 mg/kg, time 14.0 day
[17] = Toxicity in 615 mouse implanted with mouse MFC cells assessed as histological change in liver at 10 to 50 mg/kg, IG treated daily for 14 days by H and E staining based analysis; type: organism-based; details: in vivo, po, 336 h, dose 10-50 mg/kg, time 14 day
[18] = system: MFC; assay: In vivo induction of T-cell infiltration in mouse MFC cells implanted in 615 mouse assessed as increase in CD3+ CD8+ T cells at 50 mg/kg, IG treated daily for 14 days by flow cytometry (reference value: 2.79 %); type: functional; details: time 14 day
[19] = system: MKN-45; assay: Effect on H3K4me2 demethylation in human MKN-45 cells harboring LSD1-KO at 1 to 4 uM incubated for 5 days by Western blot analysis; type: functional, cell-based; details: dose 1-4 µM, time 5.0 day
[20] = target: T1, Lysine-specific histone demethylase 1A; assay: Inhibition of LSD1 in human MKN-45 cells; type: cell-based
[21] = system: MFC; assay: Antitumor activity against mouse MFC cells implanted in 615 mouse assessed as tumor growth suppression treated intragastrically daily for 14 days; type: functional, cell-based; details: dose 10-50 mg/kg, route ig, time 14.0 day
[22] = system: MKN-45; assay: Inhibition of cell migration in human MKN-45 cells at 1 to 4 uM incubated up to 48 hrs by wound healing assay; type: functional, cell-based; details: dose 1-4 µM
[23] = target: Lysine-specific histone demethylase 1A (Mus musculus) (UniProt Q6ZQ88); assay: Inhibition of LSD1 in mouse MFC cells assessed as accumulation of membrane PD-L1 at 2 uM incubated for 5 days; type: cell-based; set-up: scale not given: the % may be the effect or the level left; details: time 5.0 day
[24] = system: MFC; assay: In vivo induction of T-cell infiltration in mouse MFC cells implanted in 615 mouse assessed as increase in CD3+ CD8+ T cells at 10 mg/kg, IG treated daily for 14 days by flow cytometry (reference value: 2.79 %); type: functional; details: time 14 day
[25] = system: MFC; assay: Antitumor activity against mouse MFC cells implanted in 615 mouse assessed as decrease in tumor weight at 10 to 50 mg/kg, IG treated daily for 14 days; type: functional, organism-based; details: dose 10-50 mg/kg, time 14.0 day
[26] = Toxicity in 615 mouse implanted with mouse MFC cells assessed as body weight change at 10 to 50 mg/kg, IG treated daily for 14 days; type: organism-based; details: in vivo, po, 336 h, dose 10-50 mg/kg, time 14 day
[27] = target: T1, Lysine-specific histone demethylase 1A; assay: Inhibition of LSD1 in human MKN-45 cells assessed as accumulation of membrane PD-L1 at 1 uM incubated for 5 days (reference value: 58.4 %); type: cell-based; set-up: scale not given: the % may be the effect or the level left; details: time 5.0 day
[28] = system: MKN-45; assay: Inhibition of cell invasion in human MKN-45 cells at 1 to 4 uM incubated for 2 days by crystal violet staining based transwell assay; type: functional; details: dose 1-4 µM, time 2.0 day
[29] = system: MKN-45; assay: Effect on PD-L1 expression in human MKN-45 cells harboring LSD1-KO at 1 to 4 uM incubated for 5 days by Western blot analysis; type: functional, cell-based; details: dose 1-4 µM, time 5.0 day
[30] = target: T1, Lysine-specific histone demethylase 1A; assay: Inhibition of LSD1 in human MKN-45 cells assessed as reduction in PD-L1 level incubated for 5 days by Western blot analysis; type: cell-based; details: dose 1-4 µM, time 5.0 day
[31] = system: MKN-45; assay: Induction of T-cell killing response in human MKN-45 cells harboring LSD1-KO assessed as decrease in cell viability at 1 to 4 uM pretreated for 5 days followed by co-culturing with human PBMC-derived T cells for 4 days by CCK8 assay; type: functional, cell-based; details: dose 1-4 µM, time 5.0 day
[32] = system: MFC; assay: Antitumor activity against mouse MFC cells implanted in 615 mouse assessed as decrease PD-L1 expression treated intragastrically daily for 14 days by Western blot analysis; type: functional, cell-based; details: dose 10-50 mg/kg, route ig, time 14.0 day
[33] = system: MFC; assay: Antitumor activity against mouse MFC cells implanted in 615 mouse assessed as decrease Ki67 expression at 10 to 50 mg/kg, IG treated daily for 14 days by IHC analysis; type: functional, organism-based; details: dose 10-50 mg/kg, time 14.0 day
[34] = target: Lysine-specific histone demethylase 1A (Mus musculus) (UniProt Q6ZQ88); assay: Inhibition of LSD1 in mouse MFC cells assessed as accumulation of membrane PD-L1 at 4 uM incubated for 5 days (reference value: 63.0 %); type: cell-based; set-up: scale not given: the % may be the effect or the level left; details: time 5.0 day
[35] = target: Lysine-specific histone demethylase 1A (Mus musculus) (UniProt Q6ZQ88); assay: Inhibition of LSD1 in mouse MFC cells assessed as accumulation of membrane PD-L1 at 1 uM incubated for 5 days (reference value: 63.0 %); type: cell-based; set-up: scale not given: the % may be the effect or the level left; details: time 5.0 day
[36] = Toxicity in 615 mouse implanted with mouse MFC cells assessed as histological change in kidney at 10 to 50 mg/kg, IG treated daily for 14 days by H and E staining based analysis; type: organism-based; details: in vivo, po, 336 h, dose 10-50 mg/kg, time 14 day
[37] = target: T1, Lysine-specific histone demethylase 1A; assay: Inhibition of LSD1 in human MKN-45 cells assessed as decrease in demethylation of H3K4me1 incubated for 5 days by Western blot analysis; type: cell-based; details: dose 1-4 µM, time 5.0 day
[38] = system: MFC; assay: Induction of T-cell killing response in mouse MFC cells assessed as decrease in cell viability at 1 to 4 uM pretreated for 5 days followed by co-culturing with human PBMC-derived T cells for 4 days by CCK8 assay; type: functional, cell-based; details: dose 1-4 µM, time 5.0 day
[39] = target: T1, Lysine-specific histone demethylase 1A; assay: Induction of thermal stabilization of LSD1 in human MKN-45 cells incubated for 5 days followed by heat exposure at 40 to 55 degreeC by CETSA; type: cell-based; details: time 5.0 day
[40] = target: Programmed cell death protein 1/Programmed cell death 1 ligand 1 (Homo sapiens) (UniProt Q15116+Q9NZQ7); assay: Inhibition of PD-1/PD-L1 interaction in human MKN-45 cells pretreated for 5 days followed by PD-1-Fc addition by DAPI staining based confocal microscopy; type: cell-based; details: dose 1-4 µM, time 5.0 day
[41] = target: T1, Lysine-specific histone demethylase 1A; assay: Inhibition of LSD1 in human MKN-45 cells assessed as decrease in demethylation of H3K4me2 incubated for 5 days by Western blot analysis; type: cell-based; details: dose 1-4 µM, time 5.0 day

C=C1C(=O)OCC1C(O)c1cn(S(=O)(=O)c2ccc(N(C)C)c([N+](=O)[O-])c2)c2ccc(Cl)cc12 (stereo unspecified)
Activity [1]: No effect | Activity [2]: 6.46% | Activity [3]: Active | Activity [4]: 39.1% | IC50 [5]: 80 nM | Activity [6]: No effect | Activity [7]: Dose-dependent-effect | Activity [8]: 47.3% | Activity [9]: Non-toxic | inhibition [10]: Dose-dependent-effect | Activity [11]: Active | Activity [12]: Active | Activity [13]: Non-toxic | Activity [14]: Non-toxic | Activity [15]: Active | Activity [16]: Active | Activity [17]: Non-toxic | Activity [18]: 16.6% | Activity [19]: No effect | IC50 [20]: 80.3 nM | Activity [21]: Dose-dependent-effect | inhibition [22]: Active; Effect Was Better Than Ory-1001 | Activity [23]: 45.6% | Activity [24]: 4.92% | Activity [25]: Active | Activity [26]: Non-toxic | Activity [27]: 49.5% | inhibition [28]: Active; Effect Was Better Than Ory-1001 | Activity [29]: No effect | inhibition [30]: Dose-dependent-effect | Activity [31]: inactive | Activity [32]: Dose-dependent-effect | Activity [33]: Active | Activity [34]: 16% | Activity [35]: 59.7% | Activity [36]: Non-toxic | inhibition [37]: Dose-dependent-effect | Activity [38]: Active | Activity [39]: Active | inhibition [40]: Dose-dependent-effect | inhibition [41]: Dose-dependent-effect
